Measurements published in the supplement of paper PMC11208160.

Experiment: recombinant barcode read abundance after kanamycin selection (control-corrected) (log10(CPM+1)); higher = more efficient recombination; sequences stand for … in AGTGCAGAGAAAATCGGCCAGTTTTCTCTGCCTGCAGTCCGCATGCCGT…ATTTATGCAGCGGACTGCCTTTCTCCCAAAGTGATAAACCGGACAGTATCATGGACCGGTTTTCCCGGTAATCCGTATTTGCAAGGTTGGTTTCACT; site = the 11-nt target
Method in brief: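 Recombination efficiency draws on barcodes counted at recombinant junctions in a pooled E. coli screen of targets paired with IS621 bridge RNA target-binding loops. The counts were converted to counts per million, averaged and corrected against the chloramphenicol/ampicillin LB agar control, then reported as log10(CPM+1). Selection plates held chloramphenicol/ampicillin/kanamycin with 0.1 mM IPTG, with two replicates per condition.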

Row | Sequence | recombinant barcode read abundance (log10)
1 | GAGCCCAGTTGGGTTCTAACCTGTTGCCTAC [GAGCCCACTAG_LTGcore_GT_RTGcore_GT] (site GAGCCCACTAG) (LTG core: GT, RTG core: GT) | 0.0734
2 | GAGGCCTAATGGGTTCTAACCTGTTGCCATT [GAGGCCTCTTG_LTGcore_AA_RTGcore_AA] (site GAGGCCTCTTG) (LTG core: AA, RTG core: AA) | 0.223
3 | GAGGCCTACTGGGTTCTAACCTGTTGCCAAG [GAGGCCTCTTG_LTGcore_AC_RTGcore_CT] (site GAGGCCTCTTG) (LTG core: AC, RTG core: CT) | 0.0351
4 | GAGGCCTACTGGGTTCTAACCTGTTGCCAGT [GAGGCCTCTTG_LTGcore_AC_RTGcore_AC] (site GAGGCCTCTTG) (LTG core: AC, RTG core: AC) | 0.0631
5 | GAGGCCTATTGGGTTCTAACCTGTTGCCAAG [GAGGCCTCTTG_LTGcore_AT_RTGcore_CT] (site GAGGCCTCTTG) (LTG core: AT, RTG core: CT) | 0.196
6 | GAGGCCTATTGGGTTCTAACCTGTTGCCAAT [GAGGCCTCTTG_LTGcore_AT_RTGcore_AT] (site GAGGCCTCTTG) (LTG core: AT, RTG core: AT) | 0.122
7 | GAGGCCTCATGGGTTCTAACCTGTTGCCAAG [GAGGCCTCTTG_LTGcore_CA_RTGcore_CT] (site GAGGCCTCTTG) (LTG core: CA, RTG core: CT) | 0.318
8 | GAGGCCTGATGGGTTCTAACCTGTTGCCAAG [GAGGCCTCTTG_LTGcore_GA_RTGcore_CT] (site GAGGCCTCTTG) (LTG core: GA, RTG core: CT) | 0.0459
9 | GAGGCCTGCTGGGTTCTAACCTGTTGCCAAG [GAGGCCTCTTG_LTGcore_GC_RTGcore_CT] (site GAGGCCTCTTG) (LTG core: GC, RTG core: CT) | 0.235
10 | GAGGCCTGTTGGGTTCTAACCTGTTGCCAAG [GAGGCCTCTTG_LTGcore_GT_RTGcore_CT] (site GAGGCCTCTTG) (LTG core: GT, RTG core: CT) | 0.586
11 | GAGGCCTTATGGGTTCTAACCTGTTGCCAAG [GAGGCCTCTTG_LTGcore_TA_RTGcore_CT] (site GAGGCCTCTTG) (LTG core: TA, RTG core: CT) | 0.145
12 | GAGGCCTTGTGGGTTCTAACCTGTTGCCAAG [GAGGCCTCTTG_LTGcore_TG_RTGcore_CT] (site GAGGCCTCTTG) (LTG core: TG, RTG core: CT) | 0.0876
13 | GAGTCCAACTGGGTTCTAACCTGTTGCGTAG [GAGTCCACTAC_LTGcore_AC_RTGcore_CT] (site GAGTCCACTAC) (LTG core: AC, RTG core: CT) | 0.282
14 | GAGTCCAAGTGGGTTCTAACCTGTTGCGTAG [GAGTCCACTAC_LTGcore_AG_RTGcore_CT] (site GAGTCCACTAC) (LTG core: AG, RTG core: CT) | 0.075
15 | GAGTCCACATGGGTTCTAACCTGTTGCGTAG [GAGTCCACTAC_LTGcore_CA_RTGcore_CT] (site GAGTCCACTAC) (LTG core: CA, RTG core: CT) | 0.829
16 | GAGTCCACTTGGGTTCTAACCTGTTGCGTAC [GAGTCCACTAC_LTGcore_CT_RTGcore_GT] (site GAGTCCACTAC) (LTG core: CT, RTG core: GT) | 0.0332
17 | GAGTCCACTTGGGTTCTAACCTGTTGCGTCA [GAGTCCACTAC_LTGcore_CT_RTGcore_TG] (site GAGTCCACTAC) (LTG core: CT, RTG core: TG) | 0.0372
18 | GAGTCCACTTGGGTTCTAACCTGTTGCGTGC [GAGTCCACTAC_LTGcore_CT_RTGcore_GC] (site GAGTCCACTAC) (LTG core: CT, RTG core: GC) | 0.0181
19 | GAGTCCACTTGGGTTCTAACCTGTTGCGTGG [GAGTCCACTAC_LTGcore_CT_RTGcore_CC] (site GAGTCCACTAC) (LTG core: CT, RTG core: CC) | 0.0805
20 | GAGTCCACTTGGGTTCTAACCTGTTGCGTTA [GAGTCCACTAC_LTGcore_CT_RTGcore_TA] (site GAGTCCACTAC) (LTG core: CT, RTG core: TA) | 0.102
21 | GAGTCCACTTGGGTTCTAACCTGTTGCGTTC [GAGTCCACTAC_LTGcore_CT_RTGcore_GA] (site GAGTCCACTAC) (LTG core: CT, RTG core: GA) | 0.671
22 | GAGTCCAGATGGGTTCTAACCTGTTGCGTTC [GAGTCCACTAC_LTGcore_GA_RTGcore_GA] (site GAGTCCACTAC) (LTG core: GA, RTG core: GA) | 0.157
23 | GAGTCCAGTTGGGTTCTAACCTGTTGCGTAC [GAGTCCACTAC_LTGcore_GT_RTGcore_GT] (site GAGTCCACTAC) (LTG core: GT, RTG core: GT) | 0.0422

Row | Sequence | recombinant barcode read abundance (log10)
24 | GAGTCCATATGGGTTCTAACCTGTTGCGTAG [GAGTCCACTAC_LTGcore_TA_RTGcore_CT] (site GAGTCCACTAC) (LTG core: TA, RTG core: CT) | 0.0591
25 | GAGTCCATGTGGGTTCTAACCTGTTGCGTAG [GAGTCCACTAC_LTGcore_TG_RTGcore_CT] (site GAGTCCACTAC) (LTG core: TG, RTG core: CT) | 0.0936
26 | GAGTCCTAGTGGGTTCTAACCTGTTGCCTCT [GAGTCCTCTAG_LTGcore_AG_RTGcore_AG] (site GAGTCCTCTAG) (LTG core: AG, RTG core: AG) | 0.0613
27 | GAGTCCTCTTGGGTTCTAACCTGTTGCCTAC [GAGTCCTCTAG_LTGcore_CT_RTGcore_GT] (site GAGTCCTCTAG) (LTG core: CT, RTG core: GT) | 1.02
28 | GAGTCCTCTTGGGTTCTAACCTGTTGCCTCT [GAGTCCTCTAG_LTGcore_CT_RTGcore_AG] (site GAGTCCTCTAG) (LTG core: CT, RTG core: AG) | 1.65
29 | GAGTCCTCTTGGGTTCTAACCTGTTGCCTGG [GAGTCCTCTAG_LTGcore_CT_RTGcore_CC] (site GAGTCCTCTAG) (LTG core: CT, RTG core: CC) | 1.39
30 | GAGTCCTCTTGGGTTCTAACCTGTTGCCTTG [GAGTCCTCTAG_LTGcore_CT_RTGcore_CA] (site GAGTCCTCTAG) (LTG core: CT, RTG core: CA) | 0.753
31 | GAGTCCTGATGGGTTCTAACCTGTTGCCTAG [GAGTCCTCTAG_LTGcore_GA_RTGcore_CT] (site GAGTCCTCTAG) (LTG core: GA, RTG core: CT) | 0.62
32 | GAGTCCTGATGGGTTCTAACCTGTTGCCTTC [GAGTCCTCTAG_LTGcore_GA_RTGcore_GA] (site GAGTCCTCTAG) (LTG core: GA, RTG core: GA) | 0.149
33 | GAGTCCTGGTGGGTTCTAACCTGTTGCCTCC [GAGTCCTCTAG_LTGcore_GG_RTGcore_GG] (site GAGTCCTCTAG) (LTG core: GG, RTG core: GG) | 0.0289
34 | GAGTCCTTTTGGGTTCTAACCTGTTGCCTAA [GAGTCCTCTAG_LTGcore_TT_RTGcore_TT] (site GAGTCCTCTAG) (LTG core: TT, RTG core: TT) | 0.219
35 | GAGTCCTTTTGGGTTCTAACCTGTTGCCTAG [GAGTCCTCTAG_LTGcore_TT_RTGcore_CT] (site GAGTCCTCTAG) (LTG core: TT, RTG core: CT) | 0.153
36 | GCGCGACAGTGGGTTCTAACCTGTTGCTTAG [GCGCGACCTAA_LTGcore_AG_RTGcore_CT] (site GCGCGACCTAA) (LTG core: AG, RTG core: CT) | 0.642
37 | GCGCGACCTTGGGTTCTAACCTGTTGCTTAC [GCGCGACCTAA_LTGcore_CT_RTGcore_GT] (site GCGCGACCTAA) (LTG core: CT, RTG core: GT) | 0.23
38 | GCGCGACCTTGGGTTCTAACCTGTTGCTTCC [GCGCGACCTAA_LTGcore_CT_RTGcore_GG] (site GCGCGACCTAA) (LTG core: CT, RTG core: GG) | 0.0108
39 | GCGCGACCTTGGGTTCTAACCTGTTGCTTCT [GCGCGACCTAA_LTGcore_CT_RTGcore_AG] (site GCGCGACCTAA) (LTG core: CT, RTG core: AG) | 0.345
40 | GCGCGACCTTGGGTTCTAACCTGTTGCTTGA [GCGCGACCTAA_LTGcore_CT_RTGcore_TC] (site GCGCGACCTAA) (LTG core: CT, RTG core: TC) | 0.0329
41 | GCGCGACGCTGGGTTCTAACCTGTTGCTTGC [GCGCGACCTAA_LTGcore_GC_RTGcore_GC] (site GCGCGACCTAA) (LTG core: GC, RTG core: GC) | 0.0645
42 | GCGCGACGTTGGGTTCTAACCTGTTGCTTAC [GCGCGACCTAA_LTGcore_GT_RTGcore_GT] (site GCGCGACCTAA) (LTG core: GT, RTG core: GT) | 0.0144
43 | GCGCGACTATGGGTTCTAACCTGTTGCTTAG [GCGCGACCTAA_LTGcore_TA_RTGcore_CT] (site GCGCGACCTAA) (LTG core: TA, RTG core: CT) | 0.038
44 | GCGGGACACTGGGTTCTAACCTGTTGCCTGT [GCGGGACCTAG_LTGcore_AC_RTGcore_AC] (site GCGGGACCTAG) (LTG core: AC, RTG core: AC) | 0
45 | GCGGGACAGTGGGTTCTAACCTGTTGCCTCT [GCGGGACCTAG_LTGcore_AG_RTGcore_AG] (site GCGGGACCTAG) (LTG core: AG, RTG core: AG) | 0
